Reference: patent US8178658B2 (Dow AgroSciences, LLC, priority 2008, dated 2012)

Tests used:
[1] = system: beet armyworm (BAW; Spodoptera exigua: Lepidoptera); assay: 96-well microtiter plate-based high throughput (HTS) diet bioassay on beet armyworm (BAW HTS); type: in vivo; conditions: BAW eggs, 12 μg test compound per well, mortality at 6 d post-treatment, mortality class
Procedure: (§1) Bioassays on beet armyworm (BAW; Spodoptera exigua: Lepidoptera) were conducted using either a 96-well microtiter plate-based high throughput (HTS) bioassay or a 128-well diet tray assay. The HTS assay is a based on a modification of Lewer et al. J. Nat. Prod. 2006, 69, 1506. BAW eggs of were placed on top of artificial diet (100 μl) in each well of 96-well microtiter plate. The diet was pretreated with test compounds (12 μg dissolved in 30 μL of DMSO-acetone-water mixture) layered on top of the diet using a liquid handling system and then allowed to dry for several hours. Infested plates were then covered with a layer of sterile cotton batting and the plate lid, and then held in the dark at 29° C. Mortality was recoded at 6 d post-treatment. Each plate had six replicates. The percent mortality was calculated from the average of the six replicates. In the case of the 128-well diet assay, three to five second instar BAW larvae were placed in each well (3 mL) of the diet tray that had been previously filled with 1 mL of artificial diet to which 50 μg/cm^2 of the test compound (dissolved in 50 μL of 90:10 acetone-water mixture) had been applied (to each of eight wells) and then allowed to dry. Trays were covered with a clear self-adhesive cover, and held at 25° C., 14:10 light-dark for six days. Percent mortality was recorded for the larvae in each well; activity in the eight wells was then averaged. In Table 7, under the BAW HTS or BAW 50 heading, an “A” means that the compound was tested and at least 50 percent mortality was observed whereas, “B” means that either (1) the compound was tested and less than 50 percent mortality was observed or (2) the compound was not tested.

[2] = system: beet armyworm (BAW; Spodoptera exigua: Lepidoptera); assay: 128-well diet tray assay on beet armyworm (BAW 50); type: in vivo; conditions: 128-well diet tray assay; 50 μg/cm^2 of test compound on diet; second instar BAW larvae; mortality class
Procedure: as §1

[3] = 96-well microtiter plate HTS diet assay

Row | SMILES | BAW HTS ([1]; 96-well HTS diet bioassay) | BAW HTS [1, 3] | BAW 50 ug/cm2 [2]
1 | COc1ccc(C=NOC2OC(C)C(OC)C(OC)C2OC)cc1-c1cn(-c2ccc(OC(F)(F)F)cc2)cn1 (stereo not drawn) [Compound 35] | B (either (1) the compound was tested and less than 50 percent mortality was observed or (2) the compound was not tested) | B (either (1) the compound was tested and less than 50 percent mortality was observed or (2) the compound was not tested) | A (the compound was tested and at least 50 percent mortality was observed)
2 | COC1C(C)OC(ON=Cc2ccc(-c3cn(-c4ccc(OC(F)(F)F)cc4)cn3)cc2F)C(OC)C1OC (stereo not drawn) [Compound 36] | B (either (1) the compound was tested and less than 50 percent mortality was observed or (2) the compound was not tested) | B (either (1) the compound was tested and less than 50 percent mortality was observed or (2) the compound was not tested) | A (the compound was tested and at least 50 percent mortality was observed)
3 | COC1C(C)OC(ON=Cc2ccc(-c3cn(-c4ccc(OCC(F)(F)F)cc4)cn3)cc2)C(OC)C1OC (stereo not drawn) [Compound 37] | B (either (1) the compound was tested and less than 50 percent mortality was observed or (2) the compound was not tested) | B (either (1) the compound was tested and less than 50 percent mortality was observed or (2) the compound was not tested) | A (the compound was tested and at least 50 percent mortality was observed)
4 | COC1C(C)OC(ON=Cc2ccc(-c3cn(-c4nc(F)c(F)c(F)c4F)cn3)cc2)C(OC)C1OC (stereo not drawn) [Compound 38] | B (either (1) the compound was tested and less than 50 percent mortality was observed or (2) the compound was not tested) | B (either (1) the compound was tested and less than 50 percent mortality was observed or (2) the compound was not tested) | A (the compound was tested and at least 50 percent mortality was observed)
5 | COC1C(C)OC(ON=Cc2ccc(-c3cn(-c4ccc(I)cn4)cn3)cc2)C(OC)C1OC (stereo not drawn) [Compound 39] | B (either (1) the compound was tested and less than 50 percent mortality was observed or (2) the compound was not tested) | B (either (1) the compound was tested and less than 50 percent mortality was observed or (2) the compound was not tested) | A (the compound was tested and at least 50 percent mortality was observed)
6 | COc1ccc(C=NOC2OC(C)C(OC)C(OC)C2OC)cc1-c1cn(-c2ccc(C(F)(F)F)cc2)cn1 (stereo not drawn) [Compound 40] | B (either (1) the compound was tested and less than 50 percent mortality was observed or (2) the compound was not tested) | B (either (1) the compound was tested and less than 50 percent mortality was observed or (2) the compound was not tested) | A (the compound was tested and at least 50 percent mortality was observed)
7 | COC1C(C)OC(ON=Cc2ccc(-c3cn(-c4ccc(C)cc4)cn3)cc2)C(OC)C1OC (stereo not drawn) [Compound 41] | B (either (1) the compound was tested and less than 50 percent mortality was observed or (2) the compound was not tested) | B (either (1) the compound was tested and less than 50 percent mortality was observed or (2) the compound was not tested) | A (the compound was tested and at least 50 percent mortality was observed)
8 | COC1C(C)OC(ON=Cc2ccc(-c3cn(-c4ccc(C(F)(F)F)cc4)cn3)cc2)C(OC)C1OC (stereo not drawn) [Compound 42] | B (either (1) the compound was tested and less than 50 percent mortality was observed or (2) the compound was not tested) | B (either (1) the compound was tested and less than 50 percent mortality was observed or (2) the compound was not tested) | A (the compound was tested and at least 50 percent mortality was observed)
9 | COC1C(C)OC(ON=Cc2ccc(-c3cn(-c4ccc(Cl)cc4)cn3)cc2)C(OC)C1OC (stereo not drawn) [Compound 43] | B (either (1) the compound was tested and less than 50 percent mortality was observed or (2) the compound was not tested) | B (either (1) the compound was tested and less than 50 percent mortality was observed or (2) the compound was not tested) | A (the compound was tested and at least 50 percent mortality was observed)
10 | COc1ccc(-n2cnc(-c3ccc(C=NOC4OC(C)C(OC)C(OC)C4OC)cc3)c2)cc1 (stereo not drawn) [Compound 44] | B (either (1) the compound was tested and less than 50 percent mortality was observed or (2) the compound was not tested) | B (either (1) the compound was tested and less than 50 percent mortality was observed or (2) the compound was not tested) | A (the compound was tested and at least 50 percent mortality was observed)
11 | COC1C(C)OC(ON=Cc2ccc(-c3cn(-c4ccc(Br)cc4)cn3)cc2)C(OC)C1OC (stereo not drawn) [Compound 45] | B (either (1) the compound was tested and less than 50 percent mortality was observed or (2) the compound was not tested) | B (either (1) the compound was tested and less than 50 percent mortality was observed or (2) the compound was not tested) | A (the compound was tested and at least 50 percent mortality was observed)
12 | COC1C(C)OC(ON=Cc2ccc(-c3cn(-c4ccc(C(C)C)cc4)cn3)cc2)C(OC)C1OC (stereo not drawn) [Compound 46] | B (either (1) the compound was tested and less than 50 percent mortality was observed or (2) the compound was not tested) | B (either (1) the compound was tested and less than 50 percent mortality was observed or (2) the compound was not tested) | A (the compound was tested and at least 50 percent mortality was observed)
13 | COC1C(C)OC(ON=Cc2ccc(-c3cn(-c4ccc(I)cc4)cn3)cc2)C(OC)C1OC (stereo not drawn) [Compound 47] | B (either (1) the compound was tested and less than 50 percent mortality was observed or (2) the compound was not tested) | B (either (1) the compound was tested and less than 50 percent mortality was observed or (2) the compound was not tested) | A (the compound was tested and at least 50 percent mortality was observed)
14 | COC1C(C)OC(ON=Cc2ccc(-c3cn(-c4ccc(C(C)(C)C)cc4)cn3)cc2)C(OC)C1OC (stereo not drawn) [Compound 48] | B (either (1) the compound was tested and less than 50 percent mortality was observed or (2) the compound was not tested) | B (either (1) the compound was tested and less than 50 percent mortality was observed or (2) the compound was not tested) | A (the compound was tested and at least 50 percent mortality was observed)
15 | COC1C(C)OC(ON=Cc2ccc(-c3cn(-c4ccc(OC(F)(F)F)cc4)cn3)c(F)c2F)C(OC)C1OC (stereo not drawn) [Compound 49] | B (either (1) the compound was tested and less than 50 percent mortality was observed or (2) the compound was not tested) | B (either (1) the compound was tested and less than 50 percent mortality was observed or (2) the compound was not tested) | A (the compound was tested and at least 50 percent mortality was observed)
16 | COC1C(C)OC(ON=Cc2ccc(Cl)c(-c3cn(-c4ccc(OC(F)(F)F)cc4)cn3)c2)C(OC)C1OC (stereo not drawn) [Compound 50] | A (the compound was tested and at least 50 percent mortality was observed) | A (the compound was tested and at least 50 percent mortality was observed) | A (the compound was tested and at least 50 percent mortality was observed)
17 | CO[C@@H]1[C@@H](OC)[C@H](C)O[C@@H](O/N=C/c2ccc(-c3cn(-c4ccc(OC(F)(F)C(F)(F)F)cc4)cn3)cc2)[C@@H]1OC [Compound 51] | B (either (1) the compound was tested and less than 50 percent mortality was observed or (2) the compound was not tested) | B (either (1) the compound was tested and less than 50 percent mortality was observed or (2) the compound was not tested) | A (the compound was tested and at least 50 percent mortality was observed)
18 | CCOC1C(C)OC(ON=Cc2ccc(-c3cn(-c4ccc(OC(F)(F)C(F)(F)F)cc4)cn3)cc2)C(OCC)C1OCC (stereo not drawn) [Compound 52] | B (either (1) the compound was tested and less than 50 percent mortality was observed or (2) the compound was not tested) | B (either (1) the compound was tested and less than 50 percent mortality was observed or (2) the compound was not tested) | A (the compound was tested and at least 50 percent mortality was observed)
